PMC6384738, “Structure-Function Studies of Polymyxin B Lipononapeptides” (Molecules, 2019)
Converted amounts (≈) assume the structure as drawn. Where a SMILES comes first, the peptide text is derived from it. Bridges are numbered along the chain shown (N, C = ends). [ ]: non-standard residue; d: D form. The star is where a group is joined. Cit = NC(=O)NCCC[C@H](N)C(=O)O; dOrn = NCCC[C@@H](N)C(=O)O; hSer = N[C@@H](CCO)C(=O)O; Octanoyl = CCCCCCCC(=O)*; Orn = NCCC[C@H](N)C(=O)O; Dab = NCC[C@H](N)C(=O)O; Dap = NC[C@H](N)C(=O)O

Experiments:
A. baumannii ATCC 19606 = assay: microbe, parasite or virus in culture; details: ATCC 19606, 18 h
Description: (§1) All compounds synthesised in this study were assessed for their minimum inhibitory concentrations (MIC, mg/L) by broth microdilution assay against five antibiotic-sensitive and resistant ATCC reference strains covering the Gram-negative ESKAPE pathogens (Escherichia coli, Klebsiella pneumoniae, A. baumannii, and P. aeruginosa) (Table 1, Table 2 and Table 3). Staphylococcus aureus was also included as a representative Gram-positive bacterial strain. […] Polymyxin B 1, colistin 2, vancomycin and gentamicin were used as positive inhibitor comparator compounds. Compounds were counter-screened against human proximal tubular epithelial cells (HK-2), using LDH release as a general indicator of cellular toxicity.

E. coli ATCC 25922 = assay: microbe, parasite or virus in culture; details: ATCC 25922, 18 h
Description: as §1

K. pneumoniae ATCC 13833 = assay: microbe, parasite or virus in culture; details: ATCC 13833, 18 h
Description: as §1

[1] = system: K. pneumoniae ATCC 700603; assay: microbe, parasite or virus in culture; details: ATCC 700603, 18 h
Description: as §1

K. pneumoniae BAA 2146 = assay: microbe, parasite or virus in culture; details: BAA 2146, 18 h
Description: as §1

P. aeruginosa ATTC 27853 = assay: microbe, parasite or virus in culture; details: ATTC 27853, 18 h
Description: as §1

S. aureus ATCC 25923 = assay: microbe, parasite or virus in culture; details: ATCC 25923, 18 h
Description: as §1

in vitro = details: human
Description: as §1
Cytotoxicity to human kidney proximal tubular epithelial cell line, HK-2 (ATCC CRL-2190, sourced from ATCC; Manassas, VA, USA) was determined using the LDH assay as previously described. In brief, HK-2 cells were seeded as 2000 cells/well in black-walled clear bottom 384-well tissue culture treated plates (Corning, catalogue No. 3712) in DMEM/F12 medium (Gibco® 10565-042) containing 10% of Fetal Bovine Serum (FBS, Gibco® 10099-141) and incubated for 24 h at 37 °C, 5% CO2. Compounds were then added into each well with a concentration series from 300 µM to 2.3 µM in 2-fold dilutions. Colistin and polymyxin B were used as controls and tested at a final concentration range of 1 mM to 7.8 µM. The cells were incubated with the compounds for 24 h at 37 °C, 5% CO2. After the incubation, 5 µL of culture medium was added to 45 µL of LDH assay buffer (Biovision, K313-500) and incubated for 30 min at room temperature. The absorbance (ABS) was then read at 450 nm using a Polar Star Omega plate reader. The data was analysed by Prism 6 software (GraphPad Software, La Jolla, CA, USA). Results were calculated using the following equation: cytotoxicity %= (ABSsamples − ABSuntreated/ABS1%Triton X-100 − ABSuntreated) × 100.

MIC A. baumannii ATCC 19606 (A. baumannii ATCC 19606) [µg/mL] | MIC E. coli ATCC 25922 (E. coli ATCC 25922) [µg/mL] | MIC K. pneumoniae ATCC 13833 (K. pneumoniae ATCC 13833) [µg/mL] | MIC K. pneumoniae ATCC 700603 [1] [µg/mL] | MIC K. pneumoniae BAA 2146 (K. pneumoniae BAA 2146) [µg/mL] | MIC P. aeruginosa ATTC 27853 (P. aeruginosa ATTC 27853) [µg/mL] | MIC S. aureus ATCC 25923 (S. aureus ATCC 25923) [µg/mL] | Compound | CC50 at 24 h (in vitro) [µM]
>32 | 16 (≈ 14.3 µM) | >32 | >32 | >32 | 16 (≈ 14.3 µM) | >32 | CCCCCCCC(=O)N[C@H](C(=O)N[C@@H](CCN)C(=O)N[C@H]1CCCCNC(=O)[C@H]([C@@H](C)O)NC(=O)[C@H](CCN)NC(=O)[C@H](CCN)NC(=O)[C@H](CC(C)C)NC(=O)[C@@H](Cc2ccccc2)NC(=O)[C@H](CCN)NC1=O)[C@@H](C)O [Compound 18] (Octanoyl-T[Dab]K[Dab][dF]L[Dab][Dab]T; lactam 3-C) | 88
32 (≈ 29.7 µM) | 4 (≈ 3.72 µM) | >32 | >32 | 16 (≈ 14.9 µM) | 16 (≈ 14.9 µM) | >32 | CCCCCCCC(=O)N[C@H](C(=O)N[C@H](CO)C(=O)N[C@H]1CCNC(=O)[C@H]([C@@H](C)O)NC(=O)[C@H](CCN)NC(=O)[C@H](CCN)NC(=O)[C@H](CC(C)C)NC(=O)[C@@H](Cc2ccccc2)NC(=O)[C@H](CCN)NC1=O)[C@@H](C)O [Compound 36] (Octanoyl-T[dS][Dab][Dab][dF]L[Dab][Dab]T; lactam 3-C) | 213
>32 | 16 (≈ 14.7 µM) | >32 | >32 | >32 | >32 | >32 | CCCCCCCC(=O)N[C@H](C(=O)N[C@@H](CCO)C(=O)N[C@H]1CCNC(=O)[C@H]([C@@H](C)O)NC(=O)[C@H](CCN)NC(=O)[C@H](CCN)NC(=O)[C@H](CC(C)C)NC(=O)[C@@H](Cc2ccccc2)NC(=O)[C@H](CCN)NC1=O)[C@@H](C)O [Compound 37] (Octanoyl-T[hSer][Dab][Dab][dF]L[Dab][Dab]T; lactam 3-C) | 271
>32 | 32 (≈ 29 µM) | >32 | >32 | >32 | >32 | >32 | CCCCCCCC(=O)N[C@H](C(=O)N[C@@H](CC(N)=O)C(=O)N[C@H]1CCNC(=O)[C@H]([C@@H](C)O)NC(=O)[C@H](CCN)NC(=O)[C@H](CCN)NC(=O)[C@H](CC(C)C)NC(=O)[C@@H](Cc2ccccc2)NC(=O)[C@H](CCN)NC1=O)[C@@H](C)O [Compound 38] (Octanoyl-TN[Dab][Dab][dF]L[Dab][Dab]T; lactam 3-C) | 284
1 (≈ 0.93 µM) | 1 (≈ 0.93 µM) | 1 (≈ 0.93 µM) | 1 (≈ 0.93 µM) | 0.5 (≈ 0.465 µM) | 1 (≈ 0.93 µM) | >32 | CCCCCCCC(=O)N[C@H](C(=O)N[C@@H](CN)C(=O)N[C@H]1CCNC(=O)[C@H]([C@@H](C)O)NC(=O)[C@H](CCN)NC(=O)[C@H](CCN)NC(=O)[C@H](CC(C)C)NC(=O)[C@@H](Cc2ccccc2)NC(=O)[C@H](CCN)NC1=O)[C@@H](C)O [Compound 39] (Octanoyl-T[Dap][Dab][Dab][dF]L[Dab][Dab]T; lactam 3-C) | 290
16 (≈ 14.5 µM) | 2 (≈ 1.81 µM) | 8 (≈ 7.25 µM) | 4 (≈ 3.63 µM) | 4 (≈ 3.63 µM) | 2 (≈ 1.81 µM) | >32 | CCCCCCCC(=O)N[C@H](C(=O)N[C@@H](CCCN)C(=O)N[C@H]1CCNC(=O)[C@H]([C@@H](C)O)NC(=O)[C@H](CCN)NC(=O)[C@H](CCN)NC(=O)[C@H](CC(C)C)NC(=O)[C@@H](Cc2ccccc2)NC(=O)[C@H](CCN)NC1=O)[C@@H](C)O [Compound 40] (Octanoyl-T[Orn][Dab][Dab][dF]L[Dab][Dab]T; lactam 3-C) | > 300
16 (≈ 14.5 µM) | 1 (≈ 0.906 µM) | 32 (≈ 29 µM) | 4 (≈ 3.63 µM) | 1 (≈ 0.906 µM) | 4 (≈ 3.63 µM) | >32 | CCCCCCCC(=O)N[C@H](C(=O)N[C@H](CCCN)C(=O)N[C@H]1CCNC(=O)[C@H]([C@@H](C)O)NC(=O)[C@H](CCN)NC(=O)[C@H](CCN)NC(=O)[C@H](CC(C)C)NC(=O)[C@@H](Cc2ccccc2)NC(=O)[C@H](CCN)NC1=O)[C@@H](C)O [Compound 41] (Octanoyl-T[dOrn][Dab][Dab][dF]L[Dab][Dab]T; lactam 3-C) | > 300
32 (≈ 28.6 µM) | 4 (≈ 3.58 µM) | 16 (≈ 14.3 µM) | 16 (≈ 14.3 µM) | 8 (≈ 7.16 µM) | 4 (≈ 3.58 µM) | >32 | CCCCCCCC(=O)N[C@H](C(=O)N[C@@H](CCCCN)C(=O)N[C@H]1CCNC(=O)[C@H]([C@@H](C)O)NC(=O)[C@H](CCN)NC(=O)[C@H](CCN)NC(=O)[C@H](CC(C)C)NC(=O)[C@@H](Cc2ccccc2)NC(=O)[C@H](CCN)NC1=O)[C@@H](C)O [Compound 42] (Octanoyl-TK[Dab][Dab][dF]L[Dab][Dab]T; lactam 3-C) | > 300
16 (≈ 14.3 µM) | 1 (≈ 0.895 µM) | >32 | 4 (≈ 3.58 µM) | 4 (≈ 3.58 µM) | 4 (≈ 3.58 µM) | >32 | CCCCCCCC(=O)N[C@H](C(=O)N[C@H](CCCCN)C(=O)N[C@H]1CCNC(=O)[C@H]([C@@H](C)O)NC(=O)[C@H](CCN)NC(=O)[C@H](CCN)NC(=O)[C@H](CC(C)C)NC(=O)[C@@H](Cc2ccccc2)NC(=O)[C@H](CCN)NC1=O)[C@@H](C)O [Compound 43] (Octanoyl-T[dK][Dab][Dab][dF]L[Dab][Dab]T; lactam 3-C) | > 300
>32 | 32 (≈ 27.9 µM) | >32 | >32 | 32 (≈ 27.9 µM) | >32 | >32 | CCCCCCCC(=O)N[C@H](C(=O)N[C@@H](CCCNC(N)=O)C(=O)N[C@H]1CCNC(=O)[C@H]([C@@H](C)O)NC(=O)[C@H](CCN)NC(=O)[C@H](CCN)NC(=O)[C@H](CC(C)C)NC(=O)[C@@H](Cc2ccccc2)NC(=O)[C@H](CCN)NC1=O)[C@@H](C)O [Compound 44] (Octanoyl-T[Cit][Dab][Dab][dF]L[Dab][Dab]T; lactam 3-C) | > 300
32 (≈ 27.9 µM) | 2 (≈ 1.75 µM) | >32 | 8 (≈ 6.98 µM) | 16 (≈ 14 µM) | 4 (≈ 3.49 µM) | >32 | CCCCCCCC(=O)N[C@H](C(=O)N[C@@H](CCCNC(=N)N)C(=O)N[C@H]1CCNC(=O)[C@H]([C@@H](C)O)NC(=O)[C@H](CCN)NC(=O)[C@H](CCN)NC(=O)[C@H](CC(C)C)NC(=O)[C@@H](Cc2ccccc2)NC(=O)[C@H](CCN)NC1=O)[C@@H](C)O [Compound 45] (Octanoyl-TR[Dab][Dab][dF]L[Dab][Dab]T; lactam 3-C) | > 300
>32 | >32 | >32 | 32 (≈ 27.2 µM) | >32 | >32 | >32 | CCCCCCCC(=O)N[C@H](C(=O)N[C@@H](Cc1c[nH]c2ccccc12)C(=O)N[C@H]1CCNC(=O)[C@H]([C@@H](C)O)NC(=O)[C@H](CCN)NC(=O)[C@H](CCN)NC(=O)[C@H](CC(C)C)NC(=O)[C@@H](Cc2ccccc2)NC(=O)[C@H](CCN)NC1=O)[C@@H](C)O [Compound 46] (Octanoyl-TW[Dab][Dab][dF]L[Dab][Dab]T; lactam 3-C) | > 300
